Among the data in PubChem BioAssay AID504936 (NMMLSC, 2011) are G1/G0 population, G2 population and apoptotic population values, retold here.

Active and inactive are the calls of the source.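 Rule for the calls: active = cytostatic effect above 60% on a scale from DMSO controls to rapamycin controls, holding yeast in G1/G0 phase; inactive = the rest.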

This assay relates to S. cerevisiae BY4741 DNA content flow cytometry, cell cycle. Nature of the assay: S. cerevisiae cell cycle DNA content profile – flow cytometry (AID 504936).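 For all read-outs here: yeast exposed to compound for three five or seven days before fixation.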 The following applies: at 10 µM; for G1/G0 population: stronger effect = higher value; for G2 population: measured here: G2 phase fraction, stronger effect = lower value; for apoptotic population: measured here: apoptotic fraction. In general terms: In flow cytometry, cells or beads pass a laser one at a time.

As for `Cn1c(O)c(C(=Nc2ccc(F)cc2)c2ccccc2Cl)c(=O)n(C)c1=O`, the G1/G0 population is 72% (inactive), the G2 population was found to be 14.8% and the apoptotic population stood at 11.1%.

On to `CN(C)CCNc1ncnc2c1cnn2-c1ccc(Cl)cc1`, for which the G1/G0 population is 52.4% (inactive), the G2 population worked out at 10.3% and the apoptotic population was 35.5%.
